Source: the NIST ThermoML archive (doi:10.1016/j.tca.2015.02.020)

Test: molar heat capacity at constant pressure; xn = mol fraction of the nth substance listed
Settings: 101 kPa, Liquid, Small sample (50 mg) DSC

NCCO [2-aminoethan-1-ol] + O
Settings | molar heat capacity at constant pressure [J/K/mol]
207.9 K, x1 = 0.73 | 113.75
210.55 K, x1 = 0.19 | 71
211.06 K, x1 = 0.31 | 79.98
211.07 K, x1 = 0.23 | 73.71
212.29 K, x1 = 0.23 | 70.92
212.29 K, x1 = 0.31 | 77.16
212.64 K, x1 = 0.73 | 114.74
214.38 K, x1 = 0.23 | 74.55
214.38 K, x1 = 0.31 | 80.61
215.29 K, x1 = 0.19 | 72.31
217.03 K, x1 = 0.23 | 72.04
217.03 K, x1 = 0.31 | 78.1
217.38 K, x1 = 0.73 | 115.23
220.03 K, x1 = 0.19 | 73.62
221.01 K, x1 = 0.31 | 81.87
221.76 K, x1 = 0.23 | 73.15
221.77 K, x1 = 0.31 | 79.36
222.11 K, x1 = 0.73 | 115.72
224.33 K, x1 = 0.31 | 82.81
224.77 K, x1 = 0.19 | 74.66
226.51 K, x1 = 0.23 | 74.27
226.52 K, x1 = 0.31 | 80.3
226.86 K, x1 = 0.73 | 116.22
229.51 K, x1 = 0.19 | 75.97
230.97 K, x1 = 0.23 | 80.69
230.97 K, x1 = 0.31 | 84.38
231.24 K, x1 = 0.23 | 75.67
231.25 K, x1 = 0.31 | 81.24
231.6 K, x1 = 0.73 | 116.22
234.25 K, x1 = 0.19 | 77.02
234.28 K, x1 = 0.31 | 85.32
234.29 K, x1 = 0.23 | 81.25
235.99 K, x1 = 0.23 | 76.78
236 K, x1 = 0.31 | 82.81
236.34 K, x1 = 0.73 | 116.71
238.99 K, x1 = 0.19 | 78.07
240.72 K, x1 = 0.23 | 78.18
240.73 K, x1 = 0.31 | 84.06
240.93 K, x1 = 0.23 | 82.93
240.93 K, x1 = 0.31 | 87.2
241.08 K, x1 = 0.73 | 118.2
241.4 K, x1 = 0.19 | 78.86
243.73 K, x1 = 0.19 | 79.12
244.25 K, x1 = 0.23 | 84.04
244.25 K, x1 = 0.31 | 88.14
244.73 K, x1 = 0.19 | 80.17
245.47 K, x1 = 0.23 | 79.57
245.47 K, x1 = 0.31 | 85.63
245.83 K, x1 = 0.73 | 120.18
247.57 K, x1 = 0.23 | 85.16
247.57 K, x1 = 0.31 | 89.08
247.58 K, x1 = 0.19 | 81.21
248.48 K, x1 = 0.19 | 80.17
250.22 K, x1 = 0.23 | 80.69
250.23 K, x1 = 0.31 | 86.57
250.58 K, x1 = 0.73 | 122.15
250.9 K, x1 = 0.23 | 86.28
250.9 K, x1 = 0.31 | 90.02
251.37 K, x1 = 0.19 | 82.79
253.23 K, x1 = 0.19 | 80.95
254.22 K, x1 = 0.31 | 91.28
254.23 K, x1 = 0.23 | 87.11
254.7 K, x1 = 0.19 | 84.1
254.97 K, x1 = 0.23 | 82.37
254.98 K, x1 = 0.31 | 88.14
255.33 K, x1 = 0.73 | 124.13
257.98 K, x1 = 0.19 | 81.74
259.72 K, x1 = 0.23 | 83.48
259.72 K, x1 = 0.31 | 89.39
260.08 K, x1 = 0.73 | 126.11
260.88 K, x1 = 0.23 | 89.07
260.88 K, x1 = 0.31 | 93.16
261.35 K, x1 = 0.19 | 86.45
262.73 K, x1 = 0.19 | 82.79
264.2 K, x1 = 0.23 | 90.18
264.2 K, x1 = 0.31 | 94.1
264.47 K, x1 = 0.23 | 84.88
264.48 K, x1 = 0.31 | 90.96
264.67 K, x1 = 0.19 | 87.5
264.83 K, x1 = 0.73 | 128.09
267.48 K, x1 = 0.19 | 83.57
269.23 K, x1 = 0.23 | 86.28
269.23 K, x1 = 0.31 | 92.22
269.58 K, x1 = 0.73 | 130.07
270.7 K, x1 = 0.73 | 140.45
270.86 K, x1 = 0.23 | 91.58
270.86 K, x1 = 0.31 | 95.98
271.34 K, x1 = 0.19 | 89.86
272.24 K, x1 = 0.19 | 84.36
274.02 K, x1 = 0.23 | 87.67
274.02 K, x1 = 0.31 | 93.79
274.07 K, x1 = 0.73 | 140.95
274.23 K, x1 = 0.23 | 92.42
274.23 K, x1 = 0.31 | 96.61
274.39 K, x1 = 0.73 | 132.04
274.73 K, x1 = 0.19 | 90.65
277.12 K, x1 = 0.19 | 84.88
278.94 K, x1 = 0.23 | 88.79
278.94 K, x1 = 0.31 | 95.04
279.3 K, x1 = 0.73 | 133.53
280.95 K, x1 = 0.73 | 141.44
281.11 K, x1 = 0.23 | 93.26
281.11 K, x1 = 0.31 | 97.86
281.61 K, x1 = 0.19 | 91.69
282.05 K, x1 = 0.19 | 85.67
283.85 K, x1 = 0.23 | 89.91
283.85 K, x1 = 0.31 | 96.29
284.22 K, x1 = 0.73 | 134.02
284.4 K, x1 = 0.73 | 141.44
284.56 K, x1 = 0.23 | 93.26
284.56 K, x1 = 0.31 | 97.86
285.05 K, x1 = 0.19 | 91.96
